This note sets out measurements from patent US20260083751A1, “ALLOSTERIC MODULATORS OF ANDROGEN RECEPTOR COACTIVATOR RECRUITMENT FOR CRPC THERAPY” (University of Pittsburgh – Of the Commonwealth System of …, priority 2022, published 2026).

Entries after “also recorded” stand apart in the source; their conditions may differ. Read-outs that look alike come from different tables or passages of the source. A value given as a limit tells only on which side of the number the result lay.

By IC50 is commonly meant the concentration at which inhibition is half-maximal.

The test system of assay [1] is UBE2C promoter-driven transcription in PC3-AR-V7-GFP cells. Briefly: UBE2C promoter driven luciferase reporter assay in PC3-AR-V7-GFP cells. It counts as cell-based. How it is done:
UBE2C Promoter Driven Luciferase Reporter Assay in PC3-AR-V7-GFP Cells: The pGL4.28-UBE2C 20bpX3 luciferase reporter plasmid (Xu et al., Cancer Res 2015, 75:3663-71) was provided by Dr. Yan Dong from Tulane University. FuGENE® HD transfection agent and the UBE2C-Luc plasmid (10 ng/well) were combined at a 3:1 (μL:μg) ratio, in Opti-MEM™ medium and incubated for 25 min at RT before being added to PC3-AR-V7-GFP cells that were suspended in RPMI 1640 (Gibco) media containing 1% L-glutamine (Invitrogen), and 10% fetal bovine serum (Gemini Bio-products). Bulk transfected PC3-AR-V7-GFP cells were seeded into white opaque 384-well assay plates (Greiner Bio-one, #781080) at a density of 3,000 cell per well in a volume of […] and incubated at 5% CO2, 37° C., and 95% humidity for 24 h. After 24 h, 10 μL of compounds were transferred to assay wells and the plates were returned to the incubator for an additional 24 h before 25 μL of BrightGlo® luciferase reagent (Promega) was added to the wells and the RLU's were captured on a SpectraMax® M5e plate reader (Molecular Devices LLC) as described previously (Ibid.).
For orientation: In a reporter assay the amount or activity of a reporter protein is the signal.

In assay [2] the test system is PSA expression in C4-2 cells. Briefly: Western blot of PSA expression in C4-2 cells. Type of assay: cell-based. The note with it: C4-2 cells, hits 20 μM (enzalutamide 25 μM) 3 h, ±10 nM DHT 24 h. How it is done: Cell lysate protein concentrations were determined in a bicinchoninic acid (BCA) assay. Equal amounts of cell protein were mixed with SDS-PAGE sample buffer and placed in a heat block at 100° C. for 5 min. The protein constituents of C4-2 cells were separated by SDS-PAGE on 10% separating gels, transferred to nitrocellulose membranes and western blots were probed overnight at 4° C. with a 1:1000 dilution of a rabbit anti-hPSA (Cell Signaling, Danvers, MA) primary antibody in Tris-buffered saline (TBS) Tween 20 (TBST) containing 5% non-fat milk. Membranes were washed 3× in TBST for 10 min, then incubated for 1 h at room temperature with a 1:10,000 dilution of the goat anti-rabbit IgG horse radish peroxidase (HRP) conjugated secondary antibody (Invitrogen, Carlsbad, CA) in TBST containing 5% non-fat milk. Western blots were then washed 3× in TBST and developed with Pierce enhanced chemiluminescence (ECL) western blotting substrate (Thermo Fisher Scientific, Waltham, MA). Images of western blot ECL bands were acquired on an iBright™ 1500 imaging system (Thermo Fisher Scientific, Waltham, MA) and quantified by iBright™ image analysis software.

The mark [3] stands for this setting: 24 h, 24 h exposure, read-out: IC50 in UBE2C-Luc AR-V7 reporter assay (potency range in words).
Setting [4] is: PC3-AR-V7-GFP cells, constitutive, read-out: Inhibition AR-V7 UBE2C-reporter IC50.

As for `Cc1c(-c2ccccc2F)[nH]c2ccc(CNC(=O)c3ccc(CO)o3)cc12` [Compound S3-14], in assay [1] (setting [3]), the IC50 fell in the range of 10 to 100 µM.
Regarding `Cc1cccc2c(-c3ccc(O)c(F)c3)c[nH]c12` [Compound S3-17], the half-inhibitory concentration (IC50) in assay [1] (setting [3]) was in the range of 10 to 100 µM.
As to `Cc1nc(N)cc(N2CCOc3c(O)cc(-c4ccccc4C)cc3C2)n1` [Compound S1-2], the IC50 in assay [1] (setting [4]) was 8.3 µM.
As for `Cc1nsc(NC(=O)N2CCC(Sc3ccccc3C)CC2)n1` [Compound S2-6], the “Endogenous and DHT-enhanced PSA expression” value in assay [2] is on record as “substantially reduced; also recorded: inhibition”. Besides, the half-inhibitory concentration (IC50) in assay [1] (setting [4]) is ~15 µM.
For the molecule `Cc1ccccc1-c1cc(O)c2c(c1)CN(c1nc(C(N)=O)cs1)CCO2` [Compound S1-1], the “Endogenous and DHT-enhanced PSA expression” value in assay [2] is “substantially reduced; also recorded: inhibition”. For the same molecule, in assay [1] (setting [4]), the IC50 is < 35 µM.
For the molecule `Cc1c(-c2ccc(F)cc2)[nH]c2ccc(CNC(=O)c3ccc(CO)o3)cc12` [Compound S3-15], the concentration for half-maximal inhibition (IC50) in assay [1] (setting [3]) lay in the range of 10 to 100 µM.
On to `CNC(=O)c1ccc(-c2c[nH]c3c(C)cccc23)cc1` [Compound S3-21], for which the half-inhibitory concentration (IC50) in assay [1] (setting [4]) was > 100 µM.
Same read-out and setting: with `CC(=O)NCCC(=O)NCc1ccc2[nH]c(-c3ccccc3F)c(C)c2c1` [Compound S3-13] the figure was > 100 µM.
Take `Cc1c(-c2ccccc2F)[nH]c2ccc(CNC(=O)CCc3cn[nH]c3)cc12` [Compound S3-11]: in assay [2], the “Endogenous and DHT-enhanced PSA expression” value is “substantially reduced; also recorded: inhibition”. Moreover, the IC50 was 10 to 100 µM in assay [1] (setting [3]) and 12 µM in assay [1] (setting [4]).
In the case of `Cc1c(-c2ccccc2F)[nH]c2ccc(CNC(=O)CCc3cnccn3)cc12` [Compound S3-12], the IC50 in assay [1] (setting [3]) was 10 to 100 µM.
